Values quoted from earlier work in US10959921B2, “Emulsifying system for microemulsions with high skin tolerance” (Henkel AG & Co. KGaA, priority 2017, dated 2021).

Details: concentrations above about 1.5 wt. %

lauryl glucoside
Skin tolerance in leave-on applications: skin intolerances
